{"source": "patent US9351486B2", "about": "“Combinations of derivatized saccharide surfactants and etheramine oxide surfactants as herbicide adjuvants” (Monsanto Technology LLC, priority 2008, dated 2016)", "assay_type_in_all_cases": "in vivo", "key": {"[1]": {"system": "VIOAR, Field violet (Viola arvensis Murr.)", "assay": "Greenhouse herbicidal efficacy on VIOAR", "method": "(§1) Spray compositions of the Examples, containing an exogenous chemical, such as glyphosate potassium salt, in addition to the excipient ingredients listed, were evaluated for herbicidal efficacy according to the following method.\n(§2) The amount of exogenous chemical was selected to provide the desired rate in grams per hectare (g/ha) when applied in a spray volume of 93 l/ha. Several exogenous chemical rates were applied for each composition. Thus, except where otherwise indicated, when spray compositions were tested, the concentration of exogenous chemical varied in direct proportion to exogenous chemical rate, but the concentration of excipient ingredients was held constant across different exogenous chemical rates.\n(§3) Concentrate compositions were tested by dilution, dissolution or dispersion in water to form spray compositions. In these spray compositions prepared from concentrates, the concentration of excipient ingredients varied with that of exogenous chemical.\n(§4) The herbicidal effectiveness data set forth herein report “inhibition” as a percentage following a standard procedure in the art which reflects a visual assessment of plant mortality and growth reduction by comparison with untreated plants, made by technicians specially trained to make and record such observations. In all cases, a single technician makes all assessments of percent inhibition within any one experiment or trial. Such measurements are relied upon and regularly reported by Monsanto Company in the course of its herbicide business.\n(§5) The efficacy of potassium glyphosate formulations containing an APG surfactant and an EAO surfactant in an APG:EAO weight ratio of 4:1 and a glyphosate a.e. to total surfactant weight ratio of about 2.9:1 were evaluated in greenhouse trials. Also evaluated were potassium glyphosate compositions containing either an alkylpolyglucoside surfactant (designated as “Surfactant L” and “Surfactant N”) or an alkoxylated etheramine oxide surfactant (designated as “Surfactant G”) wherein the weight ratio of glyphosate a.e. to surfactant was about 2.9:1. Finally, the efficacy of potassium glyphosate not containing a surfactant (K-GLY) and comparative compositions 139R8H and 294T6K were also evaluated. The efficacy of each formulation, surfactant and comparative composition was evaluated at application rates of 100, 200 and 400 g glyphosate a.e. per hectare.\n(§6) The efficacy of potassium glyphosate formulations containing various ratios of APG surfactants to EAO surfactants were evaluated in greenhouse trials as compared to comparative compositions 139R8H and 276U4D. The efficacy of each formulation, surfactant and comparative composition was evaluated at application rates of 200, 400 and 600 g glyphosate a.e. per hectare and the results are reported in Table ET4A wherein APG:EAO is the weight ratio of APG surfactant to EAO surfactant and Gly:Surf is the weight ratio of glyphosate a.e. to total surfactant.\nThe efficacy of potassium glyphosate formulations containing Atplus 452 and EAO surfactants were evaluated in greenhouse trials. The efficacy of each formulation, surfactant and comparative composition was evaluated at application rates of 100, 200, 300 and 400 g glyphosate a.e. per hectare and the results are reported in Table ET5A wherein APG:EAO is the weight ratio of APG surfactant to EAO surfactant and Gly:Surf is the weight ratio of glyphosate a.e. to total surfactant."}, "[2]": {"system": "SINAR, wild mustard (Sinapis arvensis L.)", "assay": "Greenhouse herbicidal efficacy on SINAR", "method": "as §1, §2, §3, §4, §5\n(§7) The efficacy of potassium glyphosate formulations containing various APG surfactants and an EAO surfactant in an APG:EAO weight ratios and glyphosate a.e. to total surfactant weight ratios (Gly:Surf) as indicated in the tables below. Finally, the efficacy of comparative standard compositions 139R8H and 294T6K were also evaluated. The efficacy of each formulation, surfactant and comparative composition was evaluated at application rates of 100, 200 and 400 g glyphosate a.e. per hectare.\nas §6"}, "[3]": {"system": "LOLMU, Italian ryegrass (Lolium multiflorum Lam.)", "assay": "Greenhouse herbicidal efficacy on LOLMU", "conditions": "for Application rate required for 85% control, LOLMU: calculated from rates 100, 200 and 400 g a.e./ha; for Average % control, LOLMU: average for 100, 200 and 400 g a.e./ha application rates", "method": "as §1, §2, §3, §4, §5, §7"}, "MALSI, cheeseweed": {"system": "MALSI, cheeseweed", "assay": "Greenhouse herbicidal efficacy on MALSI", "conditions": "Example ET9; average for 100, 200 and 400 g a.e./ha application rates", "method": "as §1\nThe amount of exogenous chemical was selected to provide the desired rate in grams per hectare (g/ha) when applied in a spray volume of 93 l/ha. Several exogenous chemical rates were applied for each composition. […]\nas §6, with “surfactant. For each plant species, efficacy results are reported as the average % control for the three application rates (Table ET4a) and the calculated application rate (g a.e./ha) that must be applied to achieve 85% control (Table ET4b).” for “surfactant.”"}, "[4]": {"system": "ABUTH, velvetleaf (Abutilon theophrasti Medik.)", "assay": "Greenhouse herbicidal efficacy on ABUTH", "conditions": "for Average % control, ABUTH: average for 100, 200 and 400 g a.e./ha application rates", "method": "as §1, §2, §3\n(§8) The herbicidal effectiveness data set forth herein report “inhibition” as a percentage following a standard procedure in the art which reflects a visual assessment of plant mortality and growth reduction by comparison with untreated plants, made by technicians specially trained to make and record such observations. In all cases, a single technician makes all assessments of percent inhibition within any one experiment or trial. […]\n(§9) The efficacy of formulations containing potassium glyphosate and an APG surfactant (formulation 179W2N) or an EAO surfactant (formulation 179R6U) in a weight percent ratio of glyphosate a.e. to surfactant of 4:1 was evaluated in greenhouse trials as compared to compositions 276U4D, 351L9P, 294T6K and K-GLY. The efficacy of each formulation, surfactant and comparative composition was evaluated at application rates of 100, 200 and 400 g glyphosate a.e. per hectare and the results are reported in Table ET8A wherein APG:EAO is the weight ratio of alkylpolyglucoside (APG) surfactant to alkoxylated amine oxide (EAO) surfactant and Gly:Surf is the weight ratio of glyphosate a.e. to total surfactant. […]"}, "LOLMG, annual ryegrass": {"system": "LOLMG, annual ryegrass", "assay": "Greenhouse herbicidal efficacy on LOLMG", "method": "as §1, §2, §3, §8, §9"}, "[5]": {"system": "CHEAL, common lambsquarters (Chenopodium album L.)", "assay": "Greenhouse herbicidal efficacy on CHEAL", "method": "as §1, §2, §3, §4"}, "[6]": {"conditions": "Example ET1, calculated from rates 100, 200 and 400 g a.e./ha"}, "[7]": {"conditions": "Example ET1, greenhouse, average of the three application rates"}, "[8]": {"conditions": "Example ET3, average for 100, 200 and 400 g a.e./ha application rates"}, "[9]": {"conditions": "Example ET3, calculated from rates 100, 200 and 400 g a.e./ha"}, "[10]": {"conditions": "Example ET5, average for 100, 200, 300 and 400 g a.e./ha application rates"}, "[11]": {"conditions": "Example ET5, calculated from rates 100, 200, 300 and 400 g a.e./ha"}, "[12]": {"conditions": "Example ET6, average for 200, 400 and 600 g a.e./ha application rates"}, "[13]": {"conditions": "Example ET6, calculated from rates 200, 400 and 600 g a.e./ha"}, "[14]": {"conditions": "Example ET9, average for 100, 200 and 400 g a.e./ha application rates"}, "[15]": {"conditions": "Example ET2, calculated from rates 100, 200 and 400 g a.e./ha"}}}
{"smiles": "O=C(O)CNCP(=O)([O-])O.[K+]", "note": "[K-GLY, potassium glyphosate]", "values": [{"measurement": "Application rate required for 85% control, VIOAR", "setting": "[1]; [6]", "value": ">400.0", "unit": "g a.e./ha"}, {"measurement": "Average % control for 100, 200 and 400 g a.e./ha application rates, VIOAR", "setting": "[1]; [7]", "value": 39.2, "unit": "%"}, {"measurement": "Average % control, VIOAR", "setting": "[1]; [8]", "value": 27.5, "unit": "%"}, {"measurement": "Application rate required for 85% control, VIOAR", "setting": "[1]; [9]", "value": ">400.0", "unit": "g a.e./ha"}, {"measurement": "Average % control, VIOAR", "setting": "[1]; [10]", "value": 34.7, "unit": "%"}, {"measurement": "Application rate required for 85% control, VIOAR", "setting": "[1]; [11]", "value": ">400.0", "unit": "g a.e./ha"}, {"measurement": "VIOAR (ave. cntrl)", "setting": "[1]; [12]", "value": 31.7, "unit": "%"}, {"measurement": "VIOAR (g a.e./ha for 85% control)", "setting": "[1]; [13]", "value": ">600.0", "unit": "g a.e./ha"}, {"measurement": "Average % control, VIOAR", "setting": "[1]; [14]", "value": 36.7, "unit": "%"}, {"measurement": "Application rate required for 85% control, SINAR", "setting": "[2]; [6]", "value": ">400.0", "unit": "g a.e./ha"}, {"measurement": "Average % control for 100, 200 and 400 g a.e./ha application rates, SINAR", "setting": "[2]; [7]", "value": 67.5, "unit": "%"}, {"measurement": "Average % control, SINAR", "setting": "[2]; Example ET2, average for 100, 200 and 400 g a.e./ha application rates", "value": 64.1, "unit": "%"}, {"measurement": "Application rate required for 85% control, SINAR", "setting": "[2]; [15]", "value": ">400.0", "unit": "g a.e./ha"}, {"measurement": "Average % control, SINAR", "setting": "[2]; [10]", "value": 72.5, "unit": "%"}, {"measurement": "Application rate required for 85% control, SINAR", "setting": "[2]; [11]", "value": 366.7, "unit": "g a.e./ha"}, {"measurement": "SINAR 10 DAT (ave. Ctrl)", "setting": "[2]; Example ET7, 10 DAT, average for 50, 100 and 300 g a.e./ha application rates", "value": 74.6, "unit": "%"}, {"measurement": "SINAR 10 DAT (g a.e./ha for 85% control)", "setting": "[2]; Example ET7, 10 DAT, calculated from rates 50, 100 and 300 g a.e./ha", "value": 227.3, "unit": "g a.e./ha"}, {"measurement": "Application rate required for 85% control, LOLMU", "setting": "[3]; Example ET1", "value": ">400.0", "unit": "g a.e./ha"}, {"measurement": "Average % control for 100, 200 and 400 g a.e./ha application rates, LOLMU", "setting": "[3]; [7]", "value": 40.8, "unit": "%"}, {"measurement": "Average % control, LOLMU", "setting": "[3]; Example ET2", "value": 58.1, "unit": "%"}, {"measurement": "Application rate required for 85% control, LOLMU", "setting": "[3]; Example ET2", "value": ">400.0", "unit": "g a.e./ha"}, {"measurement": "Average % control, LOLMU", "setting": "[3]; Example ET3", "value": 27.9, "unit": "%"}, {"measurement": "Application rate required for 85% control, LOLMU", "setting": "[3]; Example ET3", "value": ">400.0", "unit": "g a.e./ha"}, {"measurement": "LOLMU 23 DAT (ave. control)", "setting": "[3]; Example ET7, 23 DAT, average for 50, 100 and 300 g a.e./ha application rates", "value": 48.3, "unit": "%"}, {"measurement": "LOLMU 23 DAT (g a.e./ha for 85% control)", "setting": "[3]; Example ET7, 23 DAT, calculated from rates 50, 100 and 300 g a.e./ha", "value": ">300.0", "unit": "g a.e./ha"}, {"measurement": "Average % control, MALSI", "setting": "MALSI, cheeseweed", "value": 22.8, "unit": "%"}, {"measurement": "Average % control, ABUTH", "setting": "[4]; Example ET2", "value": 40.0, "unit": "%"}, {"measurement": "Application rate required for 85% control, ABUTH", "setting": "[4]; [15]", "value": 400.0, "unit": "g a.e./ha"}, {"measurement": "Average % control, ABUTH", "setting": "[4]; Example ET9", "value": 27.2, "unit": "%"}, {"measurement": "Average % control, LOLMG", "setting": "LOLMG, annual ryegrass; [10]", "value": 42.5, "unit": "%"}, {"measurement": "Application rate required for 85% control, LOLMG", "setting": "LOLMG, annual ryegrass; [11]", "value": ">400.0", "unit": "g a.e./ha"}, {"measurement": "Average % control, LOLMG", "setting": "LOLMG, annual ryegrass; [14]", "value": 37.8, "unit": "%"}, {"measurement": "Average % control, CHEAL", "setting": "[5]; [8]", "value": 5.0, "unit": "%"}, {"measurement": "Application rate required for 85% control, CHEAL", "setting": "[5]; [9]", "value": ">400.0", "unit": "g a.e./ha"}, {"measurement": "CHEAL (ave. cntrl)", "setting": "[5]; [12]", "value": 33.3, "unit": "%"}, {"measurement": "CHEAL (g a.e./ha for 85% control)", "setting": "[5]; [13]", "value": ">600.0", "unit": "g a.e./ha"}]}
